Where a name gives a salt, the structure may show the parent alone.
Assays:
Bemisia argentifolii = test: Insecticidal Test on Bemisia argentifolii; assay type: in vivo; details: 120 h, 500 ppm solution sprayed on kidney bean leaves, adults, 25° C., 5 days after, read-out: mortality
Method: In styrol cups having an inner diameter of 7 cm, wet filter paper was laid, and kidney bean leaves cut to 3 cm were laid on the paper. 10% emulsifiable concentrates (or 10% wettable powders) of compounds of the present invention were diluted with water containing a spreader to obtain 500 ppm solutions. 2.5 ml of the solutions were sprayed from a rotary spray tower into the styrol cups (2.5 mg/cm^2). The leaves were dried in air, and adults of Bemisia argentifolii were released in the cups. The cups were closed and placed in an incubator at 25° C. 5 Days after, dead insects were counted, and the mortality was calculated by using the same equation as in Test Example 1. The test was carried out in duplicate.

Aphis gossypii = test: Insecticidal Test on Aphis gossypii; assay type: in vivo; details: foliar, 144 h, 500 ppm solution sprayed, apterous adults on cucumber leaf discs, 25° C., 6 days after, read-out: mortality
Method: (§1) Wet absorbent cotton was laid on glass dishes having an inner diameter of 3 cm, and covered with leaves of cucumber cut into circles of the same diameter, and 4 apterous adults of Aphis gossypii were released. After a day, 10% emulsifiable concentrates (or 10% wettable powders) of compounds of the present invention were diluted with water containing a spreader to obtain 500 ppm solutions, and the solution were sprayed from a rotary spray tower (2.5 mg/cm^2). The dishes were covered with lids and placed in an incubator at 25° C. 6 Days after, dead insects were counted, and the mortality was calculated by using the same equation as in Test Example 1. The test was carried out in duplicate.

Myzus persicae [1] = test: Soil Irrigation Test on Myzus persicae; assay type: in vivo; details: 144 h, 100 ppm solution, 10 ml soil irrigation of cabbage seedlings, greenhouse, 6 days after release of insects
Method: 10% emulsifiable concentrates of compounds of the present invention were diluted with tap water to obtain 100 ppm solutions. The soil around the bases of cabbage seedlings (at the 2.5 true leaf stage) planted in plastic cups was irrigated with 10 ml of the solutions, and the cups were placed in a greenhouse. One day after the irrigation, adults of Myzus persicae were released at a ratio of 20 insects per seedling, and the seedlings were incubated in the greenhouse. 6 Days after the release of the insects, living insects were counted, and the control value was calculated from the following equation.
Control value (%)={1−(Cb×Tai)/(Cai×Tb)}×100
Cb: the number of insects in a non-treated area before treatment
Cai: the final number of living insects in a non-treated area
Tb: the number of insects in a treated area before treatment
Tai: the final number of living insects in a treated area

Nilaparvata lugens = test: Insecticidal Test on Nilaparvata lugens; assay type: in vivo; details: 144 h, 500 ppm solution, rice sheaths soaked, 2nd-instar nymphs, 25° C., 6 days after, read-out: mortality (%)
Method: 10% emulsifiable concentrates (or 10% wettable powders) of compounds of the present invention were diluted with water containing a spreader to obtain 500 ppm solutions. Rice sheaths were soaked in the solutions for about 10 seconds, dried in air and put in test tubes. In each tube, five 2nd-instar nymphs of Nilaparvata lugens were released, and the tubes were capped with sponge and placed in an incubator at 25° C. 6 Days after, dead insects were counted, and the mortality (%) (the number of dead insects÷the number of released insects×100) was calculated. The test was carried out in duplicate.

Myzus persicae [2] = test: Insecticidal Test on Myzus persicae; assay type: in vivo; details: foliar, 144 h, 500 ppm solution sprayed, apterous adults on leaf discs, 25° C., 6 days after, read-out: mortality
Method: as §1, with “Canarium album” for “cucumber”, “Myzus persicae” for “Aphis gossypii”

Row | SMILES | melting point | mortality at 500 ppm (Bemisia argentifolii) | mortality at 500 ppm (Aphis gossypii) | pest or weed control at 100 ppm (Myzus persicae [1]) | mortality at 500 ppm (Nilaparvata lugens) | mortality at 500 ppm (Myzus persicae [2])
1 | CCNc1cn(-c2cccnc2)nc1C (as salt: hydrochloride) [B-002, N-ethyl-3-methyl-1-(pyridin-3-yl)-1H-pyrazole-4-amine] | 113 to 116 °C |  |  |  |  | 
2 | Cc1nn(-c2cccnc2)cc1NC(=O)OC(C)(C)C [1-011, tert-butyl 3-methyl-1-(pyridin-3-yl)-1H-pyrazol-4-ylcarbamate] |  | ≥ 90% | ≥ 90% | ≥ 90% | ≥ 90% | ≥ 90%
3 | O=C(Nc1cnn(-c2cccnc2)c1)C(Br)CCCBr (stereo not shown) [1-025, 2,5-dibromo-N-{1-(pyridin-3-yl)-1H-pyrazol-4-yl}pentanamide] | 114 to 115 °C |  |  |  |  | 
4 | O=C1CCCCN1c1cnn(-c2cccnc2)c1 [1-034, 1-{1-(pyridin-3-yl)-1H-pyrazol-4-yl}piperidin-2-one] | 123 to 124 °C |  |  |  |  | 
5 | CCN(C(=O)[C@H](C)CSC)c1cn(-c2cccnc2)nc1Cl [1-048(S)-(−), (S)-(−)-N-{3-chloro-1-(pyridin-3-yl)-1H-pyrazol-4-yl}-N-ethyl-2-methyl-3-(methylthio)propanamide] |  | ≥ 90% | ≥ 90% | ≥ 90% | ≥ 90% | ≥ 90%
6 | CN(C(=O)CCS(C)(=O)=O)c1cn(-c2cccnc2)nc1Cl [1-052, N-{3-chloro-1-(pyridin-3-yl)-1H-pyrazol-4-yl}-N-methyl-3-(methylsulfonyl)propanamide] | 90 to 91 °C |  |  | ≥ 90% |  | 
7 | CCSC(C)C(=O)N(CC)c1cn(-c2cccnc2)nc1Cl (stereo not shown) [1-118, N-{3-chloro-1-(pyridin-3-yl)-1H-pyrazol-4-yl}-N-ethyl-2-(ethylthio)propanamide] | 65 to 66 °C |  |  | ≥ 90% |  | 
8 | CSCC(C)(C)C(=O)N(C)c1cn(-c2cccnc2)nc1Cl [1-134, N-{3-chloro-1-(pyridin-3-yl)-1H-pyrazol-4-yl}-N,2,2-trimethyl-3-(methylthio)propanamide] |  | ≥ 90% | ≥ 90% | ≥ 90% | ≥ 90% | ≥ 90%
9 | CSCC1CCN(c2cn(-c3cccnc3)nc2Cl)C1=O (stereo not shown) [1-141, 1-{3-chloro-1-(pyridin-3-yl)-1H-pyrazol-4-yl}-3-(methylthiomethyl)pyrrolidin-2-one] | 83 to 84 °C |  |  |  |  | 
10 | CCN(C(=O)C(CSC)OC)c1cn(-c2cccnc2)nc1Cl (stereo not shown) [1-160, N-{3-chloro-1-(pyridin-3-yl)-1H-pyrazol-4-yl}-N-ethyl-2-methoxy-3-(methylthio)propanamide] |  |  |  | ≥ 90% |  | 
11 | CCSC(C)C(=S)Nc1cn(-c2cccnc2)nc1Cl (stereo not shown) [1-353, N-{3-chloro-1-(pyridin-3-yl)-1H-pyrazol-4-yl}-2-(ethylthio)propanethioamide] |  |  |  | ≥ 90% | ≥ 90% | 
12 | CS(=O)(=O)Nc1cnn(-c2cccnc2)c1 [2-001] | 140 to 150 °C |  |  |  |  | 
13 | CSCC(=O)N(C)C(C)=Nc1cn(-c2cccnc2)nc1C [3-004, N-methyl-N-[1-{3-methyl-1-(pyridin-3-yl)-1H-pyrazol-4-ylimino}ethyl]-2-(methylthio)acetamide] |  | ≥ 90% |  | ≥ 90% | ≥ 90% | 
14 | Clc1nn(-c2cccnc2)cc1NCC1CC1 [B-014, 3-chloro-N-(cyclopropylmethyl)-1-(pyridin-3-yl)-1H-pyrazole-4-amine] | 72 to 78 °C |  |  |  |  | 
